Assay results reported in article PMC11788822, “Uncovering the potent antimicrobial activity of squaramide based anionophores – chloride transport and membrane disruption” (Chemical Science, 2025).
pIC50: −log10 of the molar value.

Experiments:
S. aureus cells = assay: Propidium iodide membrane integrity assay; assay type: cell-based, Staphylococcus aureus; conditions: for propidium iodide fluorescence vs basal (emission around 615 nm): two hours of treatment, various concentrations
Source text: To study whether compounds 1, 2, and 4 do indeed accumulate in the membrane, and yield a depolarising effect, or compromise its integrity we utilised propidium iodide (PI), a red-emissive (λmax(em) = 617 nm) cell-impermeable fluorophore. PI undergoes a fluorescence increase upon internalisation and DNA intercalation, and thus under ordinary circumstances PI fluorescence is quenched, but if membrane integrity is compromised, a fluorescence “turn-on” occurs. After two hours of treatment with 1, 2, and 4, PI fluorescence was compared to basal fluorescence from the fluorophore. […] This clear membrane depolarising effect was less obvious for 4, and follows the trend of the observed transport, and toxicity results. However, it is of note that each compound can effectively promote an influx of PI through membrane depolarisation.
To further investigate the rate of this phenomenon, PI fluorescence was monitored as a function of time, upon treatment of S. aureus with 1 at a concentration of 50 μM (Fig. 4B).
1 mL aliquots of S. aureus cultures brought to early stationary phase overnight were brought to an OD600 = 0.2 and 100 µL of this suspension was added to 96 well plates, whereafter 100 µL of PBS containing; no compound (- control), or compound (2x desired concentration) was added to the suspension. The resultant mixture was incubated at 37 °C for 2 hr whereafter fluorescence intensity from PI (DNA bound form) was quanitified (λ exc/em = 535/615 nm) using a Clariostar plate reader. In the case of time course experiments, Measurement cycles were set for two hours, following addition of the respective compound (T0). Fluorescence was subsequently plotted as F/F0. […]
Statistical analysis of biological data: All biological experiments were carried out in triplicate, making use of cells of differing origins, on three independent occasions. With experiments concerning the use of 96-well plates, all experiments were carried out as three biological replicates of eight technical replicates. All data is presented as the mean + SEM of each replicate, unless specified otherwise. All statistical analysis and significance determination was carried out using the Graphpad Prism 8.0.1 software package.

G. mellonella larvae = assay: Galleria mellonella in vivo toxicity; conditions: larvae dosed at 10× IC50, monitored over 72 h
Experimental: Next, to assess the medicinal validity of compounds 1, 2, and 4 we investigated the in vivo toxicity of these compounds using the Galleria mellonella model organism. This model has been introduced as an alternative model to study microbial infections as it can be easily and inexpensively obtained and doesn't require specialised lab equipment or impose significant ethical constraints. […] Thus, G. mellonella larvae were dosed with a concentration of each compound at 10× IC50 and monitored for signs of toxicity or death over a 72 hour window.
(§1) Bacterial cultures were brought to early stationary phase overnight, in nutrient broth (containing 25/50 µg/mL Ampicillin for MRSA/K. pneumoniae, respectively) at 37 °C. Cultures were diluted to an OD600 = 0.01. Aliquots of Culture (100 µl) were added to 100 µL serially diluted compound (200 – 0.78 µM) in nutrient broth in a 96-well plate (Sarstedt, Germany).
Plates were incubated at 37 °C for 24 h and growth was measured at 600 nm, where growth was measured and represented relative to control.
Galleria mellonella toxicity studies
To ascertain inherent compound toxicity, 10 healthy G. mellonella larvae were selected and weighed ensuring to keep larval weight approx. 0.25 g (+ 0.05 g). This constituted one sample set for experiments. […] Larvae were subsequently monitored for up to […], for signs of toxicity, melanisation and death. […]
From an overnight culture brought to stationary phase (OD600 = ~1.0) was taken samples, brought to an OD600 = 0.2, which were treated with N-Ethoxycarbonylmethyl-6-methoxyquinolium Bromide (MQAE) (10 mM) for 1 h at 37 0C. […] 2 mL of samples were taken & transferred to a fluorescence cuvette, whereupon fluorescence was read (λexc = 350 nm (slit width = 5 nm) λem = 460 nm (slit width = 5 nm)) using a Cary Eclipse Fluorescence Spectrophotometer (Agilent Technologies). Subsequently samples were treated with the Compound of interest for 5 mins whereafter fluorescence was measured as previous, with intensity plotted relative to control, […]

S. aureus = assay: Growth inhibition assay, S. aureus; assay type: cell-based, Staphylococcus aureus; conditions: Staphylococcus aureus, growth (OD 600 nm) relative to control, 24 h, 37 °C
Experimental: To determine IC50/80 values, growth (optical density) of S. aureus, methicillin-resistant S. aureus (MRSA), P. aeruginosa, and K. pneumoniae when treated with a range of concentrations of each active compound in vitro was measured at 600 nm after a 24 h incubation period at 37 °C. Each compound was studied for activity below […], and those showing little activity above 200 μM, were noted as such, and omitted from further study.
Staphylococcus aureus culture conditions
S. aureus (ATCC33951) was cultured at 37 °C in Nutrient broth (Oxoid), in an orbital shaker at 200 rpm. Stocks were kept on nutrient agar, stored at 4 °C for up to 2 months, or as glycerol stocks (50/50 glycerol:culture), stored at -70 °C indefinitely. […]
as §1
Plates were incubated at 37 °C for 24 h and growth was measured at 600 nm, where growth was measured and represented relative to control. […]

SMILES	propidium iodide fluorescence vs basal (emission around 615 nm) (S. aureus cells)	signs of toxicity or death (G. mellonella larvae)	pIC50 (S. aureus)	IC80 (S. aureus) [µM]	propidium iodide fluorescence as a function of time (S. aureus cells; 50 μM, over two hours)
O=c1c(Nc2ccc([N+](=O)[O-])cc2)c(NC23CC4CC(CC(C4)C2)C3)c1=O [Compound 4]	less obvious	no appreciable signs of acute/chronic toxicity	3.77		
O=c1c(Nc2ccc(Cl)c(Cl)c2)c(NC23CC4CC(CC(C4)C2)C3)c1=O [Compound 2]	greatly increased	no appreciable signs of acute/chronic toxicity	4.20	250	
O=c1c(Nc2cc(C(F)(F)F)cc(C(F)(F)F)c2)c(NC23CC4CC(CC(C4)C2)C3)c1=O [Compound 1]	greatly increased	no appreciable signs of acute/chronic toxicity	6.11	~200	increase in the fluorescence of PI
